Columns and labels:
Format in all cases: binding
Antibody to CS4 = assay: ELISA of 8-mer peptides (pins) with rabbit serum; conditions: a listed pin number means recognized
Protocol: (§1) Blocks of pins for cleavable syntheses were obtained from Chiron Mimotopes U.S. Peptide synthesis was carried out according to the manufacturer's instructions using Opfp-derivatized amino acids. Peptides of length 8 with 7 overlap were manufactured in order to locate all linear epitopes in the sequence with a highest redundancy. […] Peptides were cleaved from the pins using 0.1 M phosphate buffer, pH 8.0, containing 40% acetonitrile. Two peptides were made and sacrificed for amino acid analysis as proof of peptide purity. A dinitrophenol (DNP) pin was included so that the efficiency of the cleavage could be monitored spectrophotometrically.
(§2) For blocking, a composition containing 5% nonfat dry milk in PBS+0.2% sodium azide was used. Stock streptavidin (Calbiochem Corp., La Jolla, Calif.) at 1 mg/ml in water was kept frozen in aliquots for up to several months. On the day of use, the stock streptavidin was diluted in phosphate buffered saline (PBS) to provide a concentration of 5 μg/ml streptavidin. Goat F(ab′)2 anti-mouse, anti-rabbit and anti-human sera were labeled with alkaline phosphatase (Biosource, International, Camarillo, Calif.).
(§3) Streptavidin was plated at 5 μg/ml, 50 μl per well, and incubated over night at 4° C. Plates were then washed by hand (Nunc Immunowash 12 hand plate washer. Fisher Scientific, Pittsburgh, Pa.) three times with PBS/0.1% TWEEN 20™. Peptides were then diluted to 10 μg/ml in PBS and plated at 50-μl/well. After incubation for one hour at room temperature followed by washing, the peptides were incubated with sera diluted in blocker at appropriate concentrations (5% nonfat dry milk) for 2 hours at room temperature. After washing the wells, 50 μl of phosphatase-labeled anti-serum IgG diluted 1:1000 in blocker was added to each well and was allowed to incubate at room temperature for 1 hour. The plates were washed. The 100 μl of PNDP (p-nitrophenylphosphate) substrate, prepared according to the manufacturer's instructions, was added to each well. Results were read at 5, 15 and 60 minutes using a microtiter plate reader (UVmax™, Moelcular Devices, Sunnyvale, Calif.).
(§4) Partially to fully purified colonization factor (40% to 100% pure) was run on SDS-PAGE gel (5-15 μg/lane of 10 comb gel (precast 10 comb, 1 mm thickness, Tris-tricene gel from Novex, San Diego, Calif.), for primary immunization run 9 lanes for each rabbit (45-135 μg CF protein with ½ the amount used in the primary immunization used as a booster). The gel was stained with 0.5% COOMASSIE BLUE™ (BioRad, Richmond, Calif.) in water for 1 hour, then destained with multiple changes of water for 60-90 minutes. The colonization factor bands were excised with a scalpel and the excess gel trimmed. The bands were stored at −20° C. until use.
(§5) After removal from freezer, the gel slices were transferred to a glass tissue homogenizer using a teflon pestle with grooves at the tip. The slices were ground with 0.3 ml phosphate buffered saline (PBS). The drill was run to homogenize the gel for 30 to 45 seconds. (In the instant case, a pestle with a shaft of steel was used which allowed placement of the pestle into the chuck of the hand-held drill.)
(§6) The homogenate was transferred to 16 mm×150 mm test tubes with disposable plastic transfer pipet. The pestle and homogenizer vessel was rinsed repeatedly with PBS and the contents transferred to the 16×150 test tube until a volume of 1.2 ml was obtained.
(§7) The sample obtained above was placed in a vortex mixer and vortexed on high. Freund's adjuvant 1.2 ml was added. (Complete Freund's was used for the primary immunization, while incomplete Freund's was used for the boost.) The composition was vortexed until a thick emulsion of almost a butter consistency was obtained (12-20 minutes).
(§8) A preimmune serum was obtained on all animals, which were then immunized with the 1 ml of the emulsion subcutaneously at 4-6 spots on the shoulders and rump. The animals were boosted three weeks later, then bleed 10 days after the booster shots. […]

Antibody to CS17 = assay: ELISA of 8-mer peptides (pins) with rabbit serum; conditions: a listed pin number means recognized
Protocol: as §1, §2, §3, §4, §5, §6, §7, §8

[1] = system: antibodies raised to the consensus peptide; assay: ELISA of 8-mer peptides with rabbit antibodies; conditions: for interaction of peptides with the antibodies raised to the consensus peptide: rabbit antibodies raised to consensus peptide SEQ ID NO:1; for reactivity of 8-mer peptides with antibodies from the rabbits: rabbit antibodies raised to consensus peptide SEQ ID NO:1, biotin-SGSG-peptide on streptavidin
Protocol: as §1, §2, §3
Antibodies from the rabbits were then tested against the specific 8-mer peptides obtained from SEQ ID NO:1 in the manner disclosed above to determine the binding sites of the antibodies in the sera with the consensus peptide.

Antibody to 0166 lower = assay: ELISA of 8-mer peptides (pins) with rabbit serum
Protocol: as §1, §2, §3, §4, §5, §6, §7, §8

Antibody to 0166 upper = assay: ELISA of 8-mer peptides (pins) with rabbit serum
Protocol: as §1, §2, §3, §4, §5, §6, §7, §8

Antibody to CS1 = assay: ELISA of 8-mer peptides (pins) with rabbit serum; conditions: a listed pin number means recognized
Protocol: as §1, §2, §3, §4, §5, §6, §7, §8

Antibody to CS2 = assay: ELISA of 8-mer peptides (pins) with rabbit serum; conditions: a listed pin number means recognized
Protocol: as §1, §2, §3, §4, §5, §6, §7, §8

[2] = rabbit 1083, a listed pin number means recognized
[3] = rabbit 1081, a listed pin number means recognized

| Sequence | pins (8-aa peptide) recognized by serum (Antibody to CS4; Antibody to CS4, rabbit 940) | reactivity of 8-mer peptides with antibodies from the rabbits [1] | pins (8-aa peptide) recognized by serum (Antibody to CS1; Antibody to CS1, rabbit 1089) | pins (8-aa peptide) recognized by serum (Antibody to CS1; Antibody to CS1, rabbit 1090) | also measured |
| --- | --- | --- | --- | --- | --- |
| VEKNITVT (listed as Escherichia coli) [compound 1] | 1 |  |  |  | pins (8-aa peptide) recognized by serum (Antibody to CS17; Antibody to CS17, rabbit 1084): 1 |
| DPTIDLLQ (listed as Escherichia coli) [compound 12] | 12 | most reactive | 12 | 12 | interaction of peptides with the antibodies raised to the consensus peptide [1]: more reliably interactive; pins (8-aa peptide) recognized by serum (Antibody to 0166 lower; rabbit 1082, a listed pin number means recognized): 12; pins (8-aa peptide) recognized by serum (Antibody to 0166 lower; [2]): 12; pins (8-aa peptide) recognized by serum (Antibody to CS4; Antibody to CS4, rabbit 938): 12; pins (8-aa peptide) recognized by serum (Antibody to 0166 upper; rabbit 934, a listed pin number means recognized): 12; pins (8-aa peptide) recognized by serum (Antibody to 0166 upper; [3]): 12; pins (8-aa peptide) recognized by serum (Antibody to CS2; Antibody to CS2, rabbit 1076): 12 |
| LQADGSAL (listed as Escherichia coli) [compound 18] |  |  | 18 | 18 |  |
| GSALPSAV (listed as Escherichia coli) [compound 22] | 22 |  |  | 22 |  |
| LLQADGSA (listed as Escherichia coli) [compound 17] |  |  |  |  | pins (8-aa peptide) recognized by serum (Antibody to 0166 upper; [3]): 17 |
| QADGSALP (listed as Escherichia coli) [compound 19] |  |  | 19 | 19 |  |
| SAVALTYS (listed as Escherichia coli) [compound 27] |  | most reactive |  | 27 | interaction of peptides with the antibodies raised to the consensus peptide [1]: more reliably interactive |
| EKNITVTA (listed as Escherichia coli) [compound 2] | 2 | most reactive |  |  | pins (8-aa peptide) recognized by serum (Antibody to 0166 lower; [2]): 2; pins (8-aa peptide) recognized by serum (Antibody to CS17; Antibody to CS17, rabbit 1080): 2 |
| TVTASVDP (listed as Escherichia coli) [compound 6] |  |  |  | 6 | pins (8-aa peptide) recognized by serum (Antibody to CS17; Antibody to CS17, rabbit 1084): 6 |
| SVDPTIDL (listed as Escherichia coli) [compound 10] | 10 | most reactive | 10 | 10 | interaction of peptides with the antibodies raised to the consensus peptide [1]: more reliably interactive; pins (8-aa peptide) recognized by serum (Antibody to CS4; Antibody to CS4, rabbit 938): 10; pins (8-aa peptide) recognized by serum (Antibody to 0166 upper; [3]): 10; pins (8-aa peptide) recognized by serum (Antibody to CS2; Antibody to CS2, rabbit 1076): 10; pins (8-aa peptide) recognized by serum (Antibody to CS2; Antibody to CS2, rabbit 1077): 10 |
| VTASVDPT (listed as Escherichia coli) [compound 7] |  |  |  | 7 | pins (8-aa peptide) recognized by serum (Antibody to CS17; Antibody to CS17, rabbit 1084): 7; pins (8-aa peptide) recognized by serum (Antibody to CS2; Antibody to CS2, rabbit 1076): 7; pins (8-aa peptide) recognized by serum (Antibody to CS2; Antibody to CS2, rabbit 1077): 7 |
| PSAVALTY (listed as Escherichia coli) [compound 26] |  | most reactive |  | 26 | interaction of peptides with the antibodies raised to the consensus peptide [1]: more reliably interactive; pins (8-aa peptide) recognized by serum (Antibody to CS4; Antibody to CS4, rabbit 938): 26 |
| IDLLQADG (listed as Escherichia coli) [compound 15] |  |  |  |  | pins (8-aa peptide) recognized by serum (Antibody to 0166 upper; [3]): 15 |
| NITVTASV (listed as Escherichia coli) [compound 4] |  | most reactive | 4 | 4 | pins (8-aa peptide) recognized by serum (Antibody to CS17; Antibody to CS17, rabbit 1080): 4 |

Source: patent publication US20040229772A1, “Peptides responsive to antibodies against consensus peptide of the CS4-CFA/I family proteins” (priority 1996, published 2004)
